Three compounds from PubChem BioAssay AID1259407 (Chemical Carcinogenesis Research Information System (CCRIS), 2018) can be followed below.

The test system of the data set is CCRIS mutagenicity, Ames/micronucleus/aberration tests. In words: CCRIS mutagenicity studies.
The mark [1] stands for this setting: Test System: AMES SALMONELLA TYPHIMURIUM, Strain/Indicator: TA97, Metabolic Activation: HAMSTER, LIVER, S-9, AROCLOR 1254 (10%), Method: PREINCUBATION
The mark [2] stands for this setting: Test System: AMES SALMONELLA TYPHIMURIUM, Strain/Indicator: TA97, Metabolic Activation: NONE, Method: PREINCUBATION
[3] abbreviates: Test System: AMES SALMONELLA TYPHIMURIUM, Strain/Indicator: TA97, Metabolic Activation: RAT, LIVER, S-9, AROCLOR 1254 (10%), Method: PREINCUBATION
The mark [4] stands for this setting: Test System: AMES SALMONELLA TYPHIMURIUM, Strain/Indicator: TA98, Metabolic Activation: HAMSTER, LIVER, S-9, AROCLOR 1254 (10%), Method: PREINCUBATION
Setting [5] is: Test System: AMES SALMONELLA TYPHIMURIUM, Strain/Indicator: TA98, Metabolic Activation: NONE, Method: PREINCUBATION
[6] abbreviates: Test System: AMES SALMONELLA TYPHIMURIUM, Strain/Indicator: TA98, Metabolic Activation: RAT, LIVER, S-9, AROCLOR 1254 (10%), Method: PREINCUBATION
Where [7] appears, read: Test System: AMES SALMONELLA TYPHIMURIUM, Strain/Indicator: TA100, Metabolic Activation: HAMSTER, LIVER, S-9, AROCLOR 1254 (10%), Method: PREINCUBATION
Where [8] appears, read: Test System: AMES SALMONELLA TYPHIMURIUM, Strain/Indicator: TA100, Metabolic Activation: NONE, Method: PREINCUBATION
Where [9] appears, read: Test System: AMES SALMONELLA TYPHIMURIUM, Strain/Indicator: TA100, Metabolic Activation: RAT, LIVER, S-9, AROCLOR 1254 (10%), Method: PREINCUBATION
[10] abbreviates: Test System: AMES SALMONELLA TYPHIMURIUM, Strain/Indicator: TA1535, Metabolic Activation: HAMSTER, LIVER, S-9, AROCLOR 1254 (10%), Method: PREINCUBATION
Setting [11] is: Test System: AMES SALMONELLA TYPHIMURIUM, Strain/Indicator: TA1535, Metabolic Activation: NONE, Method: PREINCUBATION
Where [12] appears, read: Test System: AMES SALMONELLA TYPHIMURIUM, Strain/Indicator: TA1535, Metabolic Activation: RAT, LIVER, S-9, AROCLOR 1254 (10%), Method: PREINCUBATION

The structures appear in SMILES notation. The source made the active and inactive calls. How the calls were made is not given here.

For `O=c1c2ccc3c4c(ccc(c24)c2nc4ccccc4n12)c(=O)n1c2ccccc2nc31`, the mutagenic call is, setting by setting: under setting [1], “inactive; negative”; under setting [2], “active; positive”; under setting [3], “inactive; negative”; under setting [4], “active; positive”; under setting [5], “active; positive”; under setting [6], “inactive; negative”. Also, the mutagenic call under setting [7] was “inactive; negative”; the mutagenic call under setting [8] was “inactive; negative”; the mutagenic call under setting [9] is “inactive; negative”; the mutagenic call under setting [10] is “inactive; negative”; the mutagenic call under setting [11] is “inactive; negative”; the mutagenic call under setting [12] is “inactive; negative”.

For `ClCC(Br)CBr` (configuration not stated), the mutagenic call is “active; positive” (End Point: IN VITRO CHROMOSOMAL ABERRATIONS, Test System: CHO CELLS, Metabolic Activation: NONE); “active; positive” (End Point: IN VITRO CHROMOSOMAL ABERRATIONS, Test System: CHO CELLS, Metabolic Activation: RAT, LIVER, S-9, AROCLOR 1254); “active; positive” under setting [1]; “inactive; negative” under setting [2]; “active; positive” under setting [3]; “active; positive” under setting [4]. In addition, the mutagenic call runs as follows: (Test System: AMES SALMONELLA TYPHIMURIUM, Strain/Indicator: TA98, Metabolic Activation: NONE, Method: FLASK ASSAY) “inactive; negative”; under setting [5], “inactive; negative”; under setting [6], “inactive; negative”; (Test System: AMES SALMONELLA TYPHIMURIUM, Strain/Indicator: TA98, Metabolic Activation: RAT, LIVER, S-9, AROCLOR 1254, Method: FLASK ASSAY) “active; positive”; under setting [7], “active; positive”; (Test System: AMES SALMONELLA TYPHIMURIUM, Strain/Indicator: TA100, Metabolic Activation: NONE, Method: FLASK ASSAY) “inactive; negative”. Further, the mutagenic call under setting [8] is “inactive; negative”; the mutagenic call (Test System: AMES SALMONELLA TYPHIMURIUM, Strain/Indicator: TA100, Metabolic Activation: NONE, Method: STANDARD PLATE) is “inactive; negative”; the mutagenic call (Test System: AMES SALMONELLA TYPHIMURIUM, Strain/Indicator: TA100, Metabolic Activation: NONE, Method: SUSPENSION/PLATE) was “inactive; negative”; the mutagenic call (Test System: AMES SALMONELLA TYPHIMURIUM, Strain/Indicator: TA100, Metabolic Activation: RAT TESTICULAR CELLS, Method: STANDARD PLATE) is “inactive; negative”; the mutagenic call (Test System: AMES SALMONELLA TYPHIMURIUM, Strain/Indicator: TA100, Metabolic Activation: RAT, HEPATOCYTES, AROCLOR 1254, Method: STANDARD PLATE) was “active; positive”; the mutagenic call (Test System: AMES SALMONELLA TYPHIMURIUM, Strain/Indicator: TA100, Metabolic Activation: RAT, HEPATOCYTES, Method: STANDARD PLATE) is “active; positive”. In addition, the mutagenic call is, setting by setting: (Test System: AMES SALMONELLA TYPHIMURIUM, Strain/Indicator: TA100, Metabolic Activation: RAT, LIVER, HEPATOCYTES, Method: SUSPENSION/PLATE) “active; positive”; (Test System: AMES SALMONELLA TYPHIMURIUM, Strain/Indicator: TA100, Metabolic Activation: RAT, LIVER, MICROSOMES, AROCLOR 1254, Method: PREINCUBATION) “active; positive”; (Test System: AMES SALMONELLA TYPHIMURIUM, Strain/Indicator: TA100, Metabolic Activation: RAT, LIVER, MICROSOMES, PHENOBARBITAL, NADPH COFACTORS, Method: STANDARD PLATE) “active; positive”; (Test System: AMES SALMONELLA TYPHIMURIUM, Strain/Indicator: TA100, Metabolic Activation: RAT, LIVER, MICROSOMES, PHENOBARBITAL, Method: PREINCUBATION) “active; positive”; (Test System: AMES SALMONELLA TYPHIMURIUM, Strain/Indicator: TA100, Metabolic Activation: RAT, LIVER, MICROSOMES, PHENOBARBITAL, Method: STANDARD PLATE) “inactive; negative”; (Test System: AMES SALMONELLA TYPHIMURIUM, Strain/Indicator: TA100, Metabolic Activation: RAT, LIVER, MICROSOMES, Method: PREINCUBATION) “active; positive”. Moreover, the mutagenic call by setting is: under setting [9], “active; positive”; (Test System: AMES SALMONELLA TYPHIMURIUM, Strain/Indicator: TA100, Metabolic Activation: RAT, LIVER, S-9, AROCLOR 1254, Method: FLASK ASSAY) “active; positive”; (Test System: AMES SALMONELLA TYPHIMURIUM, Strain/Indicator: TA100, Metabolic Activation: RAT,TESTICULAR CELLS, AROCLOR 1254, Method: STANDARD PLATE) “inactive; negative”; (Test System: AMES SALMONELLA TYPHIMURIUM, Strain/Indicator: TA100, Metabolic Activation: S-9 MIX, Method: STANDARD PLATE) “active; positive”; under setting [10], “active; positive”; (Test System: AMES SALMONELLA TYPHIMURIUM, Strain/Indicator: TA1535, Metabolic Activation: NONE, Method: FLASK ASSAY) “active; positive”. Further, the mutagenic call is, setting by setting: under setting [11], “inactive; negative”; under setting [12], “active; positive”; (Test System: AMES SALMONELLA TYPHIMURIUM, Strain/Indicator: TA1535, Metabolic Activation: RAT, LIVER, S-9, AROCLOR 1254, Method: FLASK ASSAY) “active; positive”; (Test System: AMES SALMONELLA TYPHIMURIUM, Strain/Indicator: TA1537, Metabolic Activation: HAMSTER, LIVER, S-9, AROCLOR 1254 (10%), Method: PREINCUBATION) “inactive; negative”; (Test System: AMES SALMONELLA TYPHIMURIUM, Strain/Indicator: TA1537, Metabolic Activation: NONE, Method: FLASK ASSAY) “inactive; negative”; (Test System: AMES SALMONELLA TYPHIMURIUM, Strain/Indicator: TA1537, Metabolic Activation: RAT, LIVER, S-9, AROCLOR 1254 (10%), Method: PREINCUBATION) “inactive; negative”. In addition, the mutagenic call is “inactive; negative” (Test System: AMES SALMONELLA TYPHIMURIUM, Strain/Indicator: TA1537, Metabolic Activation: RAT, LIVER, S-9, AROCLOR 1254, Method: FLASK ASSAY); “inactive; negative” (Test System: AMES SALMONELLA TYPHIMURIUM, Strain/Indicator: TA1538, Metabolic Activation: NONE, Method: FLASK ASSAY); “inactive; negative” (Test System: AMES SALMONELLA TYPHIMURIUM, Strain/Indicator: TA1538, Metabolic Activation: RAT, LIVER, S-9, AROCLOR 1254, Method: FLASK ASSAY); “active; positive” (Test System: MOUSE LYMPHOMA, Strain/Indicator: L5178Y (TK+/TK-), Metabolic Activation: NONE, Method: SUSPENSION/PLATE); “active; positive” (Test System: MOUSE LYMPHOMA, Strain/Indicator: L5178Y (TK+/TK-), Metabolic Activation: RAT, LIVER, S-9, AROCLOR 1254, Method: SUSPENSION/PLATE); “inactive; negative” (Test System: UDS RODENT HEPATOCYTES, Strain/Indicator: THY INCORP (NON-S-PHASE), Metabolic Activation: AROCLOR 1254, Method: LIQUID SCINTILLATION COUNTING). In addition, the mutagenic call (Test System: UDS RODENT HEPATOCYTES, Strain/Indicator: THY INCORP (NON-S-PHASE), Metabolic Activation: NONE, Method: LIQUID SCINTILLATION COUNTING) was “active; positive”.

`CCCCCCCCCCCCCCCC(=O)OCC1(O)CC23CC[C@@H]4c5ccoc5C=CC4(C)C2CCC1C3` (some centres not stated): the mutagenic call was “inactive; negative” (Test System: AMES SALMONELLA TYPHIMURIUM, Strain/Indicator: TM677, Metabolic Activation: NONE, Method: PREINCUBATION) and “inactive; negative” (Test System: AMES SALMONELLA TYPHIMURIUM, Strain/Indicator: TM677, Metabolic Activation: RAT, LIVER, S-9, AROCLOR 1254, Method: PREINCUBATION).
